Patent US20120101032A1, “NOVEL MACROCYCLIC INHIBITORS OF HEPATITIS C VIRUS REPLICATION” (priority 2010, published 2012)
Where two headings read alike, the source gives them in different places.

Columns and labels:
[1] = target: NS3/NS4 complexes (Hepatitis C virus genotype 1a, UniProt P27958); assay: biochemical
Source text: NS3-NS4 inhibition activity can be determined using known assay methods. For example, NS3/NS4 complexes may be formed and inhibitory concentrations of test compounds determined as described in U.S. Patent Application Publication Number 2007/0054842 paragraph numbers 1497-1509, which is incorporated herein by reference in its entirety. Similarly, hepatitis C replicon EC50 may be determined using known assay methods such as described in U.S. Patent Application Publication Number 2007/0054842 paragraph numbers 1510-1515, which is incorporated herein by reference in its entirety. Assays may be conducted at ambient temperature (23° C.) in assay buffer containing 50 mM Tris-HCl, pH 7.5, 15% glycerol, 0.6 mM Lauryldimethylamine Oxide (LDAO), 25 μM NS4A peptide, and 10 mM Dithiothreitol (DTT).

[2] = system: hepatitis C replicon; assay: hepatitis C replicon EC50 assay; format: cell-based; details: Hepatitis C virus
Source text: NS3-NS4 inhibition activity can be determined using known assay methods.

[3] = NS3-NS4 activity, 23° C., pH 7.5, 25 μM NS4A peptide, read-out: IC50
[4] = hepatitis C replicon, read-out: EC50

Sequence of NS3/NS4 complexes (P27958 1027-1657, one chain of several): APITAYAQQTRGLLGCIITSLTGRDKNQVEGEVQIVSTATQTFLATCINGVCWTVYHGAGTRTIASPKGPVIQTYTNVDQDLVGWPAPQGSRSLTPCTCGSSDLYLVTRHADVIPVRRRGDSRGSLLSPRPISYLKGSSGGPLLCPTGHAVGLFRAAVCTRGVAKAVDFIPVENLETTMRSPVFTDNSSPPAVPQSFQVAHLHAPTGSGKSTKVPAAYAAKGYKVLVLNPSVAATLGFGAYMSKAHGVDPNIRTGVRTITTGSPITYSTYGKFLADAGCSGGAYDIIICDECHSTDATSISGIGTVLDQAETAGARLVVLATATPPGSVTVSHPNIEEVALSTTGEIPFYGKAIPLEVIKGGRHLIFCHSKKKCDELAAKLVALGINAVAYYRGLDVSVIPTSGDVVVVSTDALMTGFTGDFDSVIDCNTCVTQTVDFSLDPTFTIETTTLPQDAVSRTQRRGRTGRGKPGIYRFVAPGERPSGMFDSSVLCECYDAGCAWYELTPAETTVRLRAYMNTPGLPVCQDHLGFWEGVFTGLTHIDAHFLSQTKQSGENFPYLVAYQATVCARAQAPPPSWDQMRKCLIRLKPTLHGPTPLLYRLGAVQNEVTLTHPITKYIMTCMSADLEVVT

| SMILES | IC50 [1, 3] [nM] | EC50 [2, 4] [nM] | EC50 [2] [nM] | IC50 [1] [nM] |
| --- | --- | --- | --- | --- |
| CC(C)n1c(O[C@@H]2C[C@H]3C(=O)N[C@]4(C(=O)NS(=O)(=O)N(C)C)C[C@H]4/C=C\CCCCC[C@H](NC(=O)OC(C)(C)C)C(=O)N3C2)nc2c(-c3nc(Cc4ccccc4F)cs3)cccc21 [Compound 156] | < 10 | < 10 | – | – |
| COc1ccc(Cc2csc(-c3cccc4c3nc(O[C@@H]3C[C@H]5C(=O)N[C@]6(C(=O)NS(=O)(=O)N(C)C)C[C@H]6/C=C\CCCCC[C@H](NC(=O)OC(C)(C)C)C(=O)N5C3)n4C(C)C)n2)cc1 [Compound 157] | < 10 | < 10 | – | – |
| CC(C)n1c(O[C@@H]2C[C@H]3C(=O)N[C@]4(C(=O)NS(=O)(=O)N(C)C)C[C@H]4/C=C\CCCCC[C@H](NC(=O)OC(C)(C)C)C(=O)N3C2)nc2c(-c3csc(N4CCCC4)n3)cccc21 [Compound 158] | < 10 | < 10 | – | – |
| CC(C)n1c(O[C@@H]2C[C@H]3C(=O)N[C@]4(C(=O)NS(=O)(=O)N(C)C)C[C@H]4/C=C\CCCCC[C@H](NC(=O)OC(C)(C)C)C(=O)N3C2)nc2c(-c3cnccn3)cccc21 [Compound 159] | < 10 | < 10 | – | – |
| CC(C)n1c(O[C@@H]2C[C@H]3C(=O)N[C@]4(C(=O)NS(=O)(=O)N(C)C)C[C@H]4/C=C\CCCCC[C@H](NC(=O)OC(C)(C)C)C(=O)N3C2)nc2c(-c3csc(N4CCN(C)CC4)n3)cccc21 [Compound 160] | < 10 | < 10 | – | – |
| CC(C)n1c(O[C@@H]2C[C@H]3C(=O)N[C@]4(C(=O)NS(=O)(=O)N(C)C)C[C@H]4/C=C\CCCCC[C@H](NC(=O)OC(C)(C)C)C(=O)N3C2)nc2c(-c3cncnc3)cccc21 [Compound 161] | < 10 | < 10 | – | – |
| CC(C)n1c(O[C@@H]2C[C@H]3C(=O)N[C@]4(C(=O)NS(=O)(=O)N(C)C)C[C@H]4/C=C\CCCCC[C@H](NC(=O)OC(C)(C)C)C(=O)N3C2)nc2c(-c3cncc(N4CCCC4)n3)cccc21 [Compound 162] | < 10 | < 10 | – | – |
| CC(C)n1c(O[C@@H]2C[C@H]3C(=O)N[C@]4(C(=O)NS(=O)(=O)N(C)C)C[C@H]4/C=C\CCCCC[C@H](NC(=O)OC(C)(C)C)C(=O)N3C2)nc2c(-c3cscn3)cccc21 [Compound 163] | < 10 | < 10 | – | – |
| CC(C)n1c(O[C@@H]2C[C@H]3C(=O)N[C@]4(C(=O)NS(=O)(=O)N(C)C)C[C@H]4/C=C\CCCCC[C@H](NC(=O)OC(C)(C)C)C(=O)N3C2)nc2c(-c3csc(-c4ccc(F)c(F)c4)n3)cccc21 [Compound 164] | 10 to 100 | > 100 | – | – |
| CC(C)n1c(O[C@@H]2C[C@H]3C(=O)N[C@]4(C(=O)NS(=O)(=O)C5(C)CC5)C[C@H]4/C=C\CCCCC[C@H](NC(=O)OC4CCCC4)C(=O)N3C2)nc2c(-c3nc(Cc4ccccc4)cs3)cccc21 [Compound 165] | < 10 | < 10 | – | – |
| CC(C)n1c(O[C@@H]2C[C@H]3C(=O)N[C@]4(C(=O)NS(=O)(=O)C5(C)CC5)C[C@H]4/C=C\CCCCC[C@H](NC(=O)O[C@@H]4C[C@@H]5C[C@@H]5C4)C(=O)N3C2)nc2c(-c3nc(Cc4ccccc4)cs3)cccc21 [Compound 166] | < 10 | < 10 | – | – |
| Cc1ccc2c(nc(O[C@@H]3C[C@H]4C(=O)N[C@]5(C(=O)NS(=O)(=O)N(C)C)C[C@H]5/C=C\CCCCC[C@H](NC(=O)OC(C)(C)C)C(=O)N4C3)n2C(C)C)c1-c1nc(C(C)C)cs1 [Compound 167] | < 10 | 10 to 100 | – | – |
| Cc1ccc2c(nc(O[C@@H]3C[C@H]4C(=O)N[C@]5(C(=O)NS(=O)(=O)N(C)C)C[C@H]5/C=C\CCCCC[C@H](NC(=O)OC(C)(C)C)C(=O)N4C3)n2C(C)C)c1-c1nc(C2CCCC2)cs1 [Compound 168] | < 10 | 10 to 100 | – | – |
| CC(C)n1c(O[C@@H]2C[C@H]3C(=O)N[C@]4(C(=O)NS(=O)(=O)N(C)C)C[C@H]4/C=C\CCCCC[C@H](N)C(=O)N3C2)nc2c(-c3csc(N4CCCCC4)n3)cccc21 [Compound 169] | < 10 | > 100 | – | – |
| CC(C)n1c(O[C@@H]2C[C@H]3C(=O)N[C@]4(C(=O)NS(=O)(=O)C5(C)CC5)C[C@H]4/C=C\CCCCC[C@H](N)C(=O)N3C2)nc2c(-c3csc(N4CCCCC4)n3)cccc21 [Compound 170] | < 10 | – | 10 to 100 | – |
| CC(C)n1c(O[C@@H]2C[C@H]3C(=O)N[C@]4(C(=O)NS(=O)(=O)C5CC5)C[C@H]4/C=C\CCCCC[C@H](NC(=O)OC(C)(C)C)C(=O)N3C2)nc2c(-c3nc(C4CCCCC4)cs3)cccc21 [Compound 172] | < 10 | < 10 | – | – |

| SMILES | IC50 [1, 3] [nM] | EC50 [2, 4] [nM] | EC50 [2] [nM] | IC50 [1] [nM] |
| --- | --- | --- | --- | --- |
| CC(C)n1c(O[C@@H]2C[C@H]3C(=O)N[C@]4(C(=O)NS(=O)(=O)C5CC5)C[C@H]4/C=C\CCCCC[C@H](N)C(=O)N3C2)nc2c(-c3nc(C4CCCCC4)cs3)cccc21 [Compound 173] | < 10 | > 100 | – | – |
| CC(C)n1c(O[C@@H]2C[C@H]3C(=O)N[C@]4(C(=O)NS(=O)(=O)C5(C)CC5)C[C@H]4/C=C\CCCCC[C@H](NC(=O)OC(C)(C)C)C(=O)N3C2)nc2c(-c3nc(C(F)(F)F)cs3)cccc21 [Compound 174] | < 10 | < 10 | – | – |
| CC(C)n1c(O[C@@H]2C[C@H]3C(=O)N[C@]4(C(=O)NS(=O)(=O)C5(C)CC5)C[C@H]4/C=C\CCCCC[C@H](N)C(=O)N3C2)nc2c(-c3nc(C(F)(F)F)cs3)cccc21 [Compound 175] | < 10 | 10 to 100 | – | – |
| CC(C)n1c(O[C@@H]2C[C@H]3C(=O)N[C@]4(C(=O)NS(=O)(=O)C5(C)CC5)C[C@H]4/C=C\CCCCC[C@H](NC(=O)OC(C)(C)C)C(=O)N3C2)nc2c(-c3csc(C(F)(F)F)n3)cccc21 [Compound 176] | < 10 | < 10 | – | – |
| COc1ccccc1-c1csc(-c2cccc3c2nc(O[C@@H]2C[C@H]4C(=O)N[C@]5(C(=O)NS(=O)(=O)C6(C)CC6)C[C@H]5/C=C\CCCCC[C@H](N)C(=O)N4C2)n3C(C)C)n1 [Compound 177] | < 10 | > 100 | – | – |
| CC(C)n1c(O[C@@H]2C[C@H]3C(=O)N[C@]4(C(=O)NS(=O)(=O)C5(C)CC5)C[C@H]4/C=C\CCCCC[C@H](N)C(=O)N3C2)nc2c(-c3nc(C4CCCCC4)cs3)cccc21 [Compound 178] | < 10 | > 100 | – | – |
| CC(C)n1c(O[C@@H]2C[C@H]3C(=O)N[C@]4(C(=O)NS(=O)(=O)C5(C)CC5)C[C@H]4/C=C\CCCCC[C@H](NC(=O)OC(C)(C)C)C(=O)N3C2)nc2c(-c3nc(C4CCCCC4)cs3)cccc21 [Compound 179] | < 10 | – | < 10 | – |
| CC(C)n1c(O[C@@H]2C[C@H]3C(=O)N[C@]4(C(=O)NS(=O)(=O)C5(C)CC5)C[C@H]4/C=C\CCCCC[C@H](NC(=O)OC(C)(C)C)C(=O)N3C2)nc2c(-c3nc(C4CCOCC4)cs3)cccc21 [Compound 181] | < 10 | < 10 | – | – |
| CC(C)n1c(O[C@@H]2C[C@H]3C(=O)N[C@]4(C(=O)NS(=O)(=O)C5(C)CC5)C[C@H]4/C=C\CCCCC[C@H](NC(=O)OC(C)(C)C)C(=O)N3C2)nc2c(-c3nc(C4CCNCC4)cs3)cccc21 [Compound 182] | – | – | 10 to 100 | < 10 |
| CC(C)n1c(O[C@@H]2C[C@H]3C(=O)N[C@]4(C(=O)NS(=O)(=O)C5(C)CC5)C[C@H]4/C=C\CCCCC[C@H](NC(=O)OC(C)(C)C)C(=O)N3C2)nc2c(-c3nc(C4CCN(C)CC4)cs3)cccc21 [Compound 183] | < 10 | < 10 | – | – |
| CC(C)n1c(O[C@@H]2C[C@H]3C(=O)N[C@]4(C(=O)NS(=O)(=O)C5CC5)C[C@H]4/C=C\CCCCC[C@H](NC(=O)OC(C)(C)C)C(=O)N3C2)nc2c(-c3nc(C4CCN(C)CC4)cs3)cccc21 [Compound 184] | < 10 | < 10 | – | – |
| C#CC1(S(=O)(=O)NC(=O)[C@@]23C[C@H]2/C=C\CCCCC[C@H](NC(=O)OC(C)(C)C)C(=O)N2C[C@H](Oc4nc5c(-c6nc(C7CCCCC7)cs6)cccc5n4C(C)C)C[C@H]2C(=O)N3)CC1 [Compound 188] | – | – | < 10 | < 10 |
| CC#CC1(S(=O)(=O)NC(=O)[C@@]23C[C@H]2/C=C\CCCCC[C@H](NC(=O)OC(C)(C)C)C(=O)N2C[C@H](Oc4nc5c(-c6nc(C7CCCCC7)cs6)cccc5n4C(C)C)C[C@H]2C(=O)N3)CC1 [Compound 189] | < 10 | < 10 | – | – |
| CC(C)n1c(O[C@@H]2C[C@H]3C(=O)N[C@]4(C(=O)NS(=O)(=O)C5CC5)C[C@H]4/C=C\CCCCC[C@H](NC(=O)OC(C)(C)C)C(=O)N3C2)nc2c(-c3nc(C4CCNCC4)cs3)cccc21 [Compound 190] | < 10 | < 10 | – | – |
| CC(C)(C)OC(=O)N[C@H]1CCCCC/C=C\[C@@H]2C[C@@]2(C(=O)NS(=O)(=O)C2(C)CC2)NC(=O)[C@@H]2C[C@@H](Oc3nc4cccc(-c5nc(-c6ccccc6)cs5)c4s3)CN2C1=O [Compound 201] | < 10 | < 10 | – | – |
